Results as given in ChEMBL document CHEMBL2057188, “Hybridizing ability and nuclease resistance profile of backbone modified cationic phosphorothioate oligonucleotides” (Bioorg Med Chem, 2012).

Key:
Type in all cases: nucleic-acid assay
[1] = tested on: Nucleic Acid; assay: (§1) DNA hybridizing activity at single stranded DNA assessed as thermal stability of duplexes formed between compound and complimentary ssDNA by measuring melting temperature at 4 uM in presence of 10 mM pH 7.2 sodium phosphate buffer containing 100 mM NaCl by UV based melting experiment
[2] = tested on: Nucleic Acid; assay: as §1, with “measuring change in” for “measuring”, “experiment relative to untreated control” for “experiment”
[3] = tested on: Nucleic Acid; assay: (§2) DNA hybridizing activity at single stranded RNA assessed as thermal stability of duplexes formed between compound and complimentary ssRNA by measuring melting temperature at 4 uM in presence of 10 mM pH 7.2 sodium phosphate buffer containing 100 mM NaCl by UV based melting experiment
[4] = tested on: Nucleic Acid; assay: as §2, with “measuring change in” for “measuring”, “experiment relative to untreated control” for “experiment”
[5] = tested on: Nucleic Acid; assay: (§3) DNA hybridizing activity at 22 bp double stranded DNA assessed as thermal stability of duplexes formed between compound and complimentary dsDNA by measuring melting temperature at 1.5 uM in presence of 7 mM pH 5.5 sodium phosphate buffer containing 140 mM K, 10 mM MgCl2 by UV based melting experiment
[6] = tested on: Nucleic Acid; assay: as §3, with “measuring change in” for “measuring”

Structure (SMILES) | Tm [1] [°C] | Tm [3] [°C] | Tm [5] [°C] | ΔTm [2] [°C] | ΔTm [4] [°C] | ΔTm [6] [°C]
Cc1cn([C@H]2C[C@H](OP(=O)(O)OC[C@H]3O[C@@H](n4cc(C)c(=O)[nH]c4=O)C[C@@H]3OP(=O)(O)OC[C@H]3O[C@@H](n4cc(C)c(=O)[nH]c4=O)C[C@@H]3O[P@](=O)(OC[C@H]3O[C@@H](n4cc(C)c(=O)[nH]c4=O)C[C@@H]3OP(=O)(O)OC[C@H]3O[C@@H](n4cc(C)c(=O)[nH]c4=O)C[C@@H]3OP(=O)(O)OC[C@H]3O[C@@H](n4cc(C)c(=O)[nH]c4=O)C[C@@H]3OP(=O)(O)OC[C@H]3O[C@@H](n4ccc(N)nc4=O)C[C@@H]3OP(=O)(O)OC[C@H]3O[C@@H](n4ccc(N)nc4=O)C[C@@H]3OP(=O)(O)OC[C@H]3O[C@@H](n4ccc(N)nc4=O)C[C@@H]3OP(=O)(O)O)SCCCN)[C@@H](COP(=O)(O)O[C@H]3C[C@H](n4ccc(N)nc4=O)O[C@@H]3COP(=O)(O)O[C@H]3C[C@H](n4ccc(N)nc4=O)O[C@@H]3COP(=O)(O)O[C@H]3C[C@H](n4ccc(N)nc4=O)O[C@@H]3CO)O2)c(=O)[nH]c1=O | 40 | 43 | 24 | -2 | -3 | -2
Cc1cn([C@H]2C[C@H](OP(=O)(O)OC[C@H]3O[C@@H](n4cc(C)c(=O)[nH]c4=O)C[C@@H]3OP(=O)(O)OC[C@H]3O[C@@H](n4cc(C)c(=O)[nH]c4=O)C[C@@H]3O[P@@](=O)(OC[C@H]3O[C@@H](n4cc(C)c(=O)[nH]c4=O)C[C@@H]3OP(=O)(O)OC[C@H]3O[C@@H](n4cc(C)c(=O)[nH]c4=O)C[C@@H]3OP(=O)(O)OC[C@H]3O[C@@H](n4cc(C)c(=O)[nH]c4=O)C[C@@H]3OP(=O)(O)OC[C@H]3O[C@@H](n4ccc(N)nc4=O)C[C@@H]3OP(=O)(O)OC[C@H]3O[C@@H](n4ccc(N)nc4=O)C[C@@H]3OP(=O)(O)OC[C@H]3O[C@@H](n4ccc(N)nc4=O)C[C@@H]3OP(=O)(O)O)SCCCCCN)[C@@H](COP(=O)(O)O[C@H]3C[C@H](n4ccc(N)nc4=O)O[C@@H]3COP(=O)(O)O[C@H]3C[C@H](n4ccc(N)nc4=O)O[C@@H]3COP(=O)(O)O[C@H]3C[C@H](n4ccc(N)nc4=O)O[C@@H]3CO)O2)c(=O)[nH]c1=O | 44 | 44 | 27 | 2 | -2 | 2
Cc1cn([C@H]2C[C@H](OP(=O)(O)OC[C@H]3O[C@@H](n4cc(C)c(=O)[nH]c4=O)C[C@@H]3OP(=O)(O)OC[C@H]3O[C@@H](n4cc(C)c(=O)[nH]c4=O)C[C@@H]3O[P@@](=O)(OC[C@H]3O[C@@H](n4cc(C)c(=O)[nH]c4=O)C[C@@H]3OP(=O)(O)OC[C@H]3O[C@@H](n4cc(C)c(=O)[nH]c4=O)C[C@@H]3OP(=O)(O)OC[C@H]3O[C@@H](n4cc(C)c(=O)[nH]c4=O)C[C@@H]3OP(=O)(O)OC[C@H]3O[C@@H](n4ccc(N)nc4=O)C[C@@H]3OP(=O)(O)OC[C@H]3O[C@@H](n4ccc(N)nc4=O)C[C@@H]3OP(=O)(O)OC[C@H]3O[C@@H](n4ccc(N)nc4=O)C[C@@H]3OP(=O)(O)O)SCCCCCCN)[C@@H](COP(=O)(O)O[C@H]3C[C@H](n4ccc(N)nc4=O)O[C@@H]3COP(=O)(O)O[C@H]3C[C@H](n4ccc(N)nc4=O)O[C@@H]3COP(=O)(O)O[C@H]3C[C@H](n4ccc(N)nc4=O)O[C@@H]3CO)O2)c(=O)[nH]c1=O | 42 | 43 | 27 | 0 | -3 | 2

Continued, in another order:

Tm [1] [°C] | Tm [3] [°C] | Tm [5] [°C] | Structure (SMILES) | ΔTm [2] [°C] | ΔTm [4] [°C] | ΔTm [6] [°C]
45 | 45 | 30 | Cc1cn([C@H]2C[C@H](OP(=O)(O)OC[C@H]3O[C@@H](n4cc(C)c(=O)[nH]c4=O)C[C@@H]3OP(=O)(O)OC[C@H]3O[C@@H](n4cc(C)c(=O)[nH]c4=O)C[C@@H]3O[P@@](=O)(OC[C@H]3O[C@@H](n4cc(C)c(=O)[nH]c4=O)C[C@@H]3OP(=O)(O)OC[C@H]3O[C@@H](n4cc(C)c(=O)[nH]c4=O)C[C@@H]3OP(=O)(O)OC[C@H]3O[C@@H](n4cc(C)c(=O)[nH]c4=O)C[C@@H]3OP(=O)(O)OC[C@H]3O[C@@H](n4ccc(N)nc4=O)C[C@@H]3OP(=O)(O)OC[C@H]3O[C@@H](n4ccc(N)nc4=O)C[C@@H]3OP(=O)(O)OC[C@H]3O[C@@H](n4ccc(N)nc4=O)C[C@@H]3OP(=O)(O)O)SCCNCCN)[C@@H](COP(=O)(O)O[C@H]3C[C@H](n4ccc(N)nc4=O)O[C@@H]3COP(=O)(O)O[C@H]3C[C@H](n4ccc(N)nc4=O)O[C@@H]3COP(=O)(O)O[C@H]3C[C@H](n4ccc(N)nc4=O)O[C@@H]3CO)O2)c(=O)[nH]c1=O | 3 | -1 | 5
44 | 48 | 29 | Cc1cn([C@H]2C[C@H](OP(=O)(O)O)[C@@H](COP(=O)(O)O[C@H]3C[C@H](n4ccc(N)nc4=O)O[C@@H]3COP(=O)(O)O[C@H]3C[C@H](n4ccc(N)nc4=O)O[C@@H]3COP(=O)(O)O[C@H]3C[C@H](n4cc(C)c(=O)[nH]c4=O)O[C@@H]3COP(=O)(O)O[C@H]3C[C@H](n4cc(C)c(=O)[nH]c4=O)O[C@@H]3COP(=O)(O)O[C@H]3C[C@H](n4cc(C)c(=O)[nH]c4=O)O[C@@H]3COP(=O)(O)O[C@H]3C[C@H](n4cc(C)c(=O)[nH]c4=O)O[C@@H]3COP(=O)(O)O[C@H]3C[C@H](n4cc(C)c(=O)[nH]c4=O)O[C@@H]3COP(=O)(O)O[C@H]3C[C@H](n4cc(C)c(=O)[nH]c4=O)O[C@@H]3COP(=O)(O)O[C@H]3C[C@H](n4ccc(N)nc4=O)O[C@@H]3COP(=O)(O)O[C@H]3C[C@H](n4ccc(N)nc4=O)O[C@@H]3COP(=O)(O)O[C@H]3C[C@H](n4ccc(N)nc4=O)O[C@@H]3CO)O2)c(=O)[nH]c1=O | – | – | –
42 | 46 | 25 | Cc1cn([C@H]2C[C@H](OP(=O)(O)OC[C@H]3O[C@@H](n4cc(C)c(=O)[nH]c4=O)C[C@@H]3OP(=O)(O)OC[C@H]3O[C@@H](n4cc(C)c(=O)[nH]c4=O)C[C@@H]3O[P@](=O)(S)OC[C@H]3O[C@@H](n4cc(C)c(=O)[nH]c4=O)C[C@@H]3OP(=O)(O)OC[C@H]3O[C@@H](n4cc(C)c(=O)[nH]c4=O)C[C@@H]3OP(=O)(O)OC[C@H]3O[C@@H](n4cc(C)c(=O)[nH]c4=O)C[C@@H]3OP(=O)(O)OC[C@H]3O[C@@H](n4ccc(N)nc4=O)C[C@@H]3OP(=O)(O)OC[C@H]3O[C@@H](n4ccc(N)nc4=O)C[C@@H]3OP(=O)(O)OC[C@H]3O[C@@H](n4ccc(N)nc4=O)C[C@@H]3OP(=O)(O)O)[C@@H](COP(=O)(O)O[C@H]3C[C@H](n4ccc(N)nc4=O)O[C@@H]3COP(=O)(O)O[C@H]3C[C@H](n4ccc(N)nc4=O)O[C@@H]3COP(=O)(O)O[C@H]3C[C@H](n4ccc(N)nc4=O)O[C@@H]3CO)O2)c(=O)[nH]c1=O | – | – | –
42 | 46 | 26 | Cc1cn([C@H]2C[C@H](OP(=O)(O)OC[C@H]3O[C@@H](n4cc(C)c(=O)[nH]c4=O)C[C@@H]3OP(=O)(O)OC[C@H]3O[C@@H](n4cc(C)c(=O)[nH]c4=O)C[C@@H]3O[P@@](=O)(S)OC[C@H]3O[C@@H](n4cc(C)c(=O)[nH]c4=O)C[C@@H]3OP(=O)(O)OC[C@H]3O[C@@H](n4cc(C)c(=O)[nH]c4=O)C[C@@H]3OP(=O)(O)OC[C@H]3O[C@@H](n4cc(C)c(=O)[nH]c4=O)C[C@@H]3OP(=O)(O)OC[C@H]3O[C@@H](n4ccc(N)nc4=O)C[C@@H]3OP(=O)(O)OC[C@H]3O[C@@H](n4ccc(N)nc4=O)C[C@@H]3OP(=O)(O)OC[C@H]3O[C@@H](n4ccc(N)nc4=O)C[C@@H]3OP(=O)(O)O)[C@@H](COP(=O)(O)O[C@H]3C[C@H](n4ccc(N)nc4=O)O[C@@H]3COP(=O)(O)O[C@H]3C[C@H](n4ccc(N)nc4=O)O[C@@H]3COP(=O)(O)O[C@H]3C[C@H](n4ccc(N)nc4=O)O[C@@H]3CO)O2)c(=O)[nH]c1=O | – | – | –
